Data: the OPERA property sets (Mansouri et al. 2018)
Peptide text beside a SMILES is read from it.

SMILES	logP
Cc1ccc(C(O)c2ccccc2)cc1 (stereo not given)	3.13
CN(C)N=Nc1ccccc1C(N)=O	1.73
Cc1ccc2[nH]ccc2c1	2.68
Cc1cccc(C)c1	3.2
COc1cc(CC(=O)O)ccc1OC(C)C	1.75
O=[N+]([O-])c1ccc(C=Cc2nccs2)o1	1.97
CCc1cc(NC(C)=O)cc(CC)c1O	1.87
CN(C)C=CC#N	0.47
O=C(O)c1ccc2c(c1)OCCOCCOCCOCCOCCO2	-0.28
O=C1CCC(=O)N1c1ccccc1	0.06
CC(C)(C)NCCO	0.41
O=CNc1cccc2cccnc12	1.8
Cc1ccc2nc(N)[nH]c2c1	1.11
C=CCC1(CC(=C)Br)C(=O)NC(=O)N(C)C1=O (stereo not given)	1.78
COc1c(O)c(OC)c(OC)c(O)c1OC	0.39
COC(=O)COc1ccccc1	1.41
COP(=S)(OC)Oc1cc(Cl)c(Br)cc1Cl	5.21
CC[C@H](C)[C@H](NC(C)=O)C(=O)N[C@@H](CC(N)=O)C(N)=O (Ac-Ile-Asn-NH2)	-1.41
COc1cc([C@@H]2c3cc4c(cc3C(O[C@@H]3O[C@@H]5CO[C@@H](C)O[C@H]5[C@H](O)[C@H]3O)C3COC(=O)[C@@H]32)OCO4)cc(OC)c1O (stereo not given in full)	0.6
CCC(=O)OC(Cc1ccccc1)(c1ccccc1)C(C)CN(C)C (stereo not given)	4.18
Nc1cccc(S(N)(=O)=O)c1	-0.38
O=C(O)Cc1cccc(C(=O)O)c1	1.14
c1ccc(C2CO2)cc1 (stereo not given)	1.61
CNS(=O)(=O)c1ccc(S(I)=C(N(C)C)N(C)C)cc1 (stereo not given)	-1.4
NC1C2CCC1c1ccccc12 (stereo not given)	2.13
CC1(c2ccncc2)CCC(=O)NC1=O (stereo not given)	0.07
O=C(O)C1CCCCC1	1.96

SMILES	logP
CCNC(C)C	0.93
O=NN1CCOCC1	-0.44
O=C(O)Cc1ccc(OCCCc2ccccc2)c(Cl)c1	3.9
OC[C@H]1O[C@@H](Oc2ccccc2)[C@H](O)[C@@H](O)[C@@H]1O	-0.75
CCNC(=S)Nc1ccccc1	1.42
CN(C)C(=O)Nc1cccc(CCc2ccccc2)c1	3.21
CC(=O)Nc1ccc(I)cc1	2.71
CCN(CC)C(=O)N(CC)N=O	1.54
CN(C)C(=O)C=Cc1ccccc1	1.73
CC(=O)Oc1ccc([N+](=O)[O-])cc1	1.5
Cc1cccc(CO)c1	1.6
Nc1ccc(Cl)cc1N	1.28
Brc1cc(Br)c(Br)cc1Br	5.13
CC(C)(C)c1ccccc1	4.11
COc1ccc2cc(C(C)C(=O)OCC(=O)N(C)CCO)ccc2c1 (stereo not given)	2.01
CC(=O)c1ccc(OCC(=O)O)cc1	0.87
CC(=O)Nc1ccc(OC(C)=O)cc1	1.05
O=NN(c1ccccc1)c1ccccc1	3.13
CC(=O)Nc1ncc([N+](=O)[O-])s1	1.3
CN1CCN(CCCN2c3ccccc3Sc3ccc(Cl)cc32)CC1	4.88
O=C(O)CCCC(=O)O	-0.29
COP(=O)(OC)O/C(C)=C/C(=O)N(C)C	0
CCCC(C)C1(CC)C(=O)N=C(S)NC1=O (stereo not given)	2.85
CC(=O)NN	-1.58
CC(=O)c1ccc(C#N)cc1	1.22
Cl[C@@H]1CCCC[C@H]1Cl	3.21
COP(=O)(OC)OC(=CCl)c1cc(Cl)c(Cl)cc1Cl	3.53

SMILES	logP
Cc1cccc(S(I)=C(N(C)C)N(C)C)c1 (stereo not given)	-0.14
CCSc1ccc2c(c1)N(CCCN1CCN(C)CC1)c1ccccc1S2	5.41
COc1cccc(C(C)=O)c1	1.84
NC(=O)OCCC1=C(N2CC2)C(=O)C(Br)=C(N2CC2)C1=O	0.68
c1ccc(Oc2ccccn2)cc1	2.39
c1ccc(OCCOc2ccccc2)cc1	3.81
N#CN/C(N)=N/c1ccccc1	1.05
COc1ccccc1C(=O)NCCN(C)C	1.14
Cc1c(Cl)cccc1Nc1ccccc1CC(=O)O	4.64
CCCOC(=O)c1cccnc1	1.94
COC(=O)C(C)NC(C)=O (stereo not given)	-0.57
Cc1[nH]cnc1CSCCNc1nc(=O)cc[nH]1	0.02
CCCOC(=O)c1cc(O)c(O)c(O)c1	1.8
COc1cc2c(c(OC)c1OC)-c1ccc(=O)c(OC)cc1[C@@H](NC(=O)C(F)(F)F)CC2	2.08
CCN(CC)C(C)=O	0.34
CCO[Si](C)(C)OCC	0.61
CN(C)C(=O)Nc1cccc(Cl)c1	2
OCc1cccs1	0.87
O=C(O)c1cccc([N+](=O)[O-])c1	1.83
COc1cccc(N)c1	0.93
CNC(=O)Oc1cc(C)cc(C(C)C)c1	3.1
O=CNc1ccc(Cl)cc1	2.04
Clc1cccc2nccnc12	1.75
CCC(=O)Nc1ccnc2cc(Cl)ccc12	2.73
OC1CCCCC1	1.23
CSc1ccc(C(=O)O)cc1	2.74
